# Reference: paper PMC7481839, “Switchable foldamer ion channels with antibacterial activity” (Chemical Science, 2020)
# Where a SMILES comes first, the peptide text is derived from it.
# Experiments:
# [1] = HPTS assay of ionophoric activity in phospholipid vesicles; assay type: biochemical; settings: Table S1, HPTS assay
# Procedure: The membrane activity of 1, 2, Cu[1]Cl2 and Cu[2]Cl2 was assessed in phospholipid vesicle membranes using 8-hydroxypyrene-1,3,6-trisulfonate (HPTS) assays. HPTS assays can show ionophoric activity that occurs via any combination of M^+/H^+ antiport, X^–/OH^– antiport, M^+/OH^– symport and X^–/H^+ symport.
# The HPTS assays of 1, 2, Cu[1]Cl2 and Cu[2]Cl2 used 1 : 4 cholesterol : egg yolk phosphatidylcholine (EYPC) vesicles in MOPS buffer (pH 7.4) with 100 mM of an appropriate salt (e.g. KCl, KBr, NaCl), following previously reported procedures.[16] The resulting normalised data were fitted to pseudo first-order rate equations as an approximation (see the ESI ^†).[32] Although the change in fluorescence after the “burst phase” is likely to arise from multiple processes, including inter-vesicle transfer of foldamers,[33] this fitting allows the relative effectiveness of each compound to be compared.
# CuCl2 was added at 2 min, followed by addition of 2.2 eq. EDTA at 3 min.
# 5.1 Preparation of large unilamellar vesicles for HPTS assays
# The HPTS assays of 1, 2, Cu[1]Cl2 and Cu[2]Cl2 used 1:4 cholesterol:egg yolk phosphatidylcholine (EYPC) vesicles in MOPS buffer (pH 7.4) with 100 mM of an appropriate salt (e.g. KCl, KBr, NaCl).5 Aliquots of 1, 2, Cu[1]Cl2 or Cu[2]Cl2 dissolved in methanol were mixed with the vesicle suspensions for 60 s before adding a base pulse to change the external pH to 8.4.6 The resulting change in HPTS fluorescence was followed for 6 min, then Triton X-100 was added at 7 min to lyse the vesicles […]. Each assay was repeated three times on new vesicles. The resulting normalized data were fitted to pseudo first-order rate equations as an approximation (see the ESI), similar to the procedure of Regen and co-workers.7 Although the change in fluorescence after the “burst phase” is likely to arise from multiple processes, including inter-vesicle transfer of foldamers,8 this fitting allows the relative effectiveness of each compound to be compared.
# Egg yolk phosphatidylcholine (EYPC, 64 μmol) and cholesterol (16 μmol) were dissolved in 2 mL chloroform (spectroscopic grade). The solvent was removed under reduced pressure resulting in a thin film of lipid on the inside wall of the round bottom flask, which was dried further under vacuum for 2 hours. 1.2 mL of a trisodium 8-hydroxypyrene-1,3,6-trisulfonate (HPTS, 100 mM, pH = 7.4) dye in (3-(N-morpholino) propanesulfonic acid) buffer (20 mM MOPS, 100 mM MX (M = K or Na, X = Cl, Br or NO3− adjusted to pH 7.4 using NaOH) were added to the lipid film. Afterwards, the thin film was detached from the sides of the flask by vortex mixing. The resulting lipid suspension was then extruded 19 times through an 800 nm polycarbonate membrane in an Avestin Liposofast extruder to give a suspension of 800 nm large unilamellar vesicles. Unencapsulated HPTS dye was removed by gel permeation chromatography on PD-10 SEC columns (Sephadex G-25). Hereby 1 mL of the 800 nm vesicle suspension was diluted to 2.5 mL with 20 mM MOPS buffer solution and loaded onto the GPC column. The suspension run onto the column, followed by 3.5 mL of 20 mM MOPS buffer, which were collected, giving a stock vesicle solution of 3.5 mL (final concentration of lipids = 15.23 mM). This solution of vesicles was used directly in the HPTS experiments.
# 5.2 Procedure for HPTS assays
# 100 μL of the vesicle stock solution was diluted to 2 mL with 20 mM MOPS buffer (final lipid concentration in cuvette 0.762 mM). To this vesicle suspension was then added 20 μL of the principle compound in methanol (1 mM or 0.6 mM for Cu[2]Cl2) and the cuvette was equipped with a stirrer bar. The cuvette was […]
# Solubility = assay type: physicochemical; settings: under the haemolysis assay conditions (blood diluted with PBS, compound added from DMSO)
# Text: Mixing 1 or 2 with CuCl2 or CuCl provided green or blue complexes respectively. […] The blue complexes from the addition of CuCl gave very broad NMR spectra even after preparing fresh samples, which was ascribed to in situ oxidation of Cu(I); Cu(I)(TPA) complexes are very efficient one electron donors and will rapidly reduce alkyl halides[27] and oxygen.[28] Furthermore these blue products gave green solids when dried (see the ESI, Fig. S2 ^†).
# Although alamethicin is a very active channel former, its use in the clinic is hampered by its high haemolytic activity.[52] […] It is known that the haemolytic activity of amphipathic peptides, including alamethicin, decreases substantially on a reduction of peptide hydrophobicity and hydrophobic moment.[56]
smiles,measurement,setting,value
CC(C)(NC(=O)C(C)(C)NC(=O)C(C)(C)NC(=O)C(C)(C)NC(=O)C(C)(C)n1cc(CN(Cc2ccccn2)Cc2ccccn2)nn1)C(=O)NC(C)(C)C(=O)NC(C)(C)C(=O)NC(C)(C)C(=O)OCC[Si](C)(C)C [foldamer 2] (HELM PEPTIDE1{[CC(C)(C(=O)[*:2])n1cc(CN(Cc2ccccn2)Cc2ccccn2)nn1].[Aib].[Aib].[Aib].[Aib].[Aib].[Aib].[Aib].[C[Si](C)(C)CCO[*:1]]}$$$$V2.0),"Apparent observed rate constant kobs, KBr","[1]; 100 mM KBr, compound 10 µM",4.0 10−3 s−1
same,"Apparent observed rate constant kobs, KCl","[1]; 100 mM KCl, compound 10 µM",3.3 10−3 s−1
same,"Apparent observed rate constant kobs, KNO3","[1]; 100 mM KNO3, compound 10 µM",3.2 10−3 s−1
same,"Apparent observed rate constant kobs, NaCl","[1]; 100 mM NaCl, compound 10 µM, methanol control 1 × 10−3 s−1",4.6 10−3 s−1
same,solubility limit,Solubility,20 µM
